What all share (format): cell-based
The subject of experiment [1] is HEK-Blue™ IL-2 reporter cells. Kind of experiment: HEK-Blue IL-2 reporter assay (SEAP) for determining selectivity. Particulars: HEK-Blue IL-2 cells, 4 ng/mL human recombinant IL-2, SEAP reporter. As for the experimental part: (§1) Example B-3: HEK-Blue™ IL-2 and IFNγ Reporter Assays for Determining Selectivity
(§2) HEK-Blue™ IL-2 and IFNγ reporter cells with a stably-integrated cytokine receptor and STAT5 or STAT1 express STAT-inducible secreted embryonic alkaline phosphatase (SEAP) reporter gene upon cytokine stimulation. These cells were plated in DMEM (Gibco) containing 10% heat-inactivated FBS (Gibco) and 100 U/mL PenStrep (Gibco) at 37° C. under 5% CO2 conditions for 20-22 hours. The cells were then pre-treated with serially diluted test compounds for 60 min prior to stimulation with either 4 ng/mL human recombinant IL-2 (Miltenyl Biotech) or 50 ng/mL human recombinant IFNγ (InvivoGen) for 24 hours. SEAP induction was measured using the QUANTI-Blue™ Solution (InvivoGen) according to the manufacturer's instructions.

Experiment [2] addresses T1, TYK2 Pseudokinase (JH2) (Homo sapiens, UniProt P29597). Kind of experiment: HEK-Blue IL-23 reporter assay (SEAP) for profiling TYK2 pseudokinase (JH2) inhibition. Details: HEK-Blue™ IL-23 and IFNα/β cells with a stably-integrated cytokine receptor and STAT3 or STAT1; endogenous in cells; host or cells: HEK-Blue IL-23 and HEK-Blue IFNα/β cells. The following applies: HEK-Blue IL-23 cells, 10 ng/mL human recombinant IL-23, SEAP reporter; read-out: IL23 (TYK2 inhibitory activity, IC50). The method, then:
(§3) Example B-1: HEK-Blue™ IL-23 and IFNα/β Reporter Assays for Profiling TYK2 Pseudokinase (JH2) Inhibition
(§4) HEK-Blue™ IL-23 and IFNα/β cells with a stably-integrated cytokine receptor and STAT3 or STAT1 express STAT-inducible secreted embryonic alkaline phosphatase (SEAP) reporter gene upon cytokine stimulation. These cells are plated in DMEM (Gibco) containing 10% heat-inactivated FBS (Gibco) and 100 U/mL PenStrep (Gibco) at 37° C. under 5% CO2 conditions for 20-22 hours. The cells are then pretreated with serially diluted test compounds for 60 min prior to stimulation with either 10 ng/mL human recombinant IL-23 (Miltenyl Biotech) or 1 ng/mL human recombinant IFNα (InvivoGen) for 22-24 hours for IL-23 or 16-18 h for IFNα. SEAP induction is measured using the QUANTI Blue™ Solution (InvivoGen) according to the manufacturer's instructions.

Experiment [3] addresses T1, TYK2 Pseudokinase (JH2). In words: HEK-Blue IFNα/β reporter assay (SEAP) for profiling TYK2 pseudokinase (JH2) inhibition. The following applies: HEK-Blue IFNα/β cells, 1 ng/mL human recombinant IFNα, read-out: IFNα (TYK2 inhibitory activity, IC50). The method, then: as §3, §4
For experiment [4], the system named is HEK-Blue™ IFNγ reporter cells. Kind of experiment: HEK-Blue IFNγ reporter assay (SEAP) for determining selectivity. Particulars: 50 ng/mL human recombinant IFNγ, read-out: IFN-γ (SEAP selectivity, IC50). The method, then: as §1, §2

The structures appear in SMILES notation.

T1 sequence (P29597 whole entry): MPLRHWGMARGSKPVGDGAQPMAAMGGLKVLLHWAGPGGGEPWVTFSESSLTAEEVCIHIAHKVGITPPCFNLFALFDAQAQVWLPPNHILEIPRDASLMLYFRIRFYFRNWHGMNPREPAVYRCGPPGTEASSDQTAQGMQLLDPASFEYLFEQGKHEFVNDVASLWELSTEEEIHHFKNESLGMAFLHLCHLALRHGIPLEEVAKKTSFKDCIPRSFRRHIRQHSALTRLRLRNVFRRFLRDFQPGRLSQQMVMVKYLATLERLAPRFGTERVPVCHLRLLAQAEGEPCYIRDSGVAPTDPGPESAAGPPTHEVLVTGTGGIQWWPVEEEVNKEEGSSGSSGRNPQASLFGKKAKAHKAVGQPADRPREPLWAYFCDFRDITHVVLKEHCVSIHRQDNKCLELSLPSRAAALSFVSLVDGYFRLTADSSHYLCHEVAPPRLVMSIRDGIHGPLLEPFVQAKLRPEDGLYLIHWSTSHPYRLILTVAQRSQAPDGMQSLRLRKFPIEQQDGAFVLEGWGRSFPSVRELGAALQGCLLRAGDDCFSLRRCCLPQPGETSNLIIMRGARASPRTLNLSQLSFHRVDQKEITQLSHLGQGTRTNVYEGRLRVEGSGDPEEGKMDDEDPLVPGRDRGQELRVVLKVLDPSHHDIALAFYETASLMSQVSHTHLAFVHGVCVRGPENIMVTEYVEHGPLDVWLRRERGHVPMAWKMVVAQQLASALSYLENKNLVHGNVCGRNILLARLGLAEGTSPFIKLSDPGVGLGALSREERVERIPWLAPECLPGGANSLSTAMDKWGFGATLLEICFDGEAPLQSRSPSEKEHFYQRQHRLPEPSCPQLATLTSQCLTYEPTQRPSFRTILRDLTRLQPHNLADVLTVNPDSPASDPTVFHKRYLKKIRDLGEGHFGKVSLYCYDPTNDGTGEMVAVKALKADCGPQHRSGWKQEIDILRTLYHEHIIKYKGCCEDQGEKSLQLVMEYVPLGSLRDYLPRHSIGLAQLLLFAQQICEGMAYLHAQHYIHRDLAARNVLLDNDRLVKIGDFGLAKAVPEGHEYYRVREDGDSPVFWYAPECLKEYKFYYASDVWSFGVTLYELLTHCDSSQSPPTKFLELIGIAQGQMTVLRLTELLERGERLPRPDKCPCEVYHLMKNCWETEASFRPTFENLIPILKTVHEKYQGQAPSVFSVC

For `[2H]C([2H])([2H])NC(=O)c1nnc(NC(=O)C2CC2)cc1Nc1cccc2c1N(C)Cc1nc(C)oc1-2` [Compound 22, 6-(cyclopropanecarboxamido)-4-((2,5-dimethyl-4,5-dihydrooxazolo[4,5-c]quinolin-6-yl)amino)-N-(methyl-d3)pyridazine-3-carboxamide], the half-maximal inhibitory concentration (IC50) in experiment [1] is 300 to 1000 nM; at TYK2 Pseudokinase (JH2) [2], less than 30 nM.

Take `CNC(=O)c1nnc(NC(=O)C2CC2)cc1Nc1cccc2c1OCn1nnnc1-2` [Compound 5, 4-((5H-benzo[e]tetrazolo[1,5-c][1,3]oxazin-7-yl)amino)-6-(cyclopropanecarboxamido)-N-methylpyridazine-3-carboxamide]: the values for the IC50 on TYK2 Pseudokinase (JH2) [3] and at TYK2 Pseudokinase (JH2) [2] were more than 1000 nM and 300 to 1000 nM, respectively.

As to `CNC(=O)c1nnc(Nc2ccc(F)cn2)cc1Nc1cccc2c1OCc1c-2noc1C` [Compound 1, 6-((5-fluoropyridin-2-yl)amino)-N-methyl-4-((3-methyl-4H-chromeno[4,3-c]isoxazol-6-yl)amino)pyridazine-3-carboxamide], the values for the half-inhibitory concentration (IC50) on TYK2 Pseudokinase (JH2) [3] and on TYK2 Pseudokinase (JH2) [2] were more than 1000 nM and 300 to 1000 nM, respectively.

Regarding `[2H]C([2H])([2H])NC(=O)c1cnc(NC(=O)C2CC2)cc1Nc1nccc2c1N(C)Cc1nn(C)c(=O)n1-2` [Compound 21, 6-(cyclopropanecarboxamido)-4-((2,5-dimethyl-1-oxo-1,2,4,5-tetrahydropyrido[3,4-e][1,2,4]triazolo[4,3-a]pyrazin-6-yl)amino)-N-(methyl-d3)nicotinamide], the concentration for half-maximal inhibition (IC50) on TYK2 Pseudokinase (JH2) [3] is 30 to 300 nM; in experiment [1], more than 1000 nM; in experiment [4] it was 300 to 1000 nM; on TYK2 Pseudokinase (JH2) [2] it was less than 30 nM.

For `CNC(=O)c1nnc(Nc2ccc(F)cn2)cc1Nc1cccc2c1OCc1nnnn1-2` [Compound 4, 4-((4H-benzo[b]tetrazolo[1,5-d][1,4]oxazin-6-yl)amino)-6-((5-fluoropyridin-2-yl)amino)-N-methylpyridazine-3-carboxamide], the IC50 was more than 1000 nM on TYK2 Pseudokinase (JH2) [3] and 300 to 1000 nM on TYK2 Pseudokinase (JH2) [2].

Regarding `[2H]C([2H])([2H])NC(=O)c1nnc(NC(=O)C2CC2)cc1Nc1cccc2c1N(C)C[C@H]1CCC(=O)N21` [Compound 38, (R)-6-(cyclopropanecarboxamido)-N-(methyl-d3)-4-((5-methyl-1-oxo-1,2,3,3a,4,5-hexahydropyrrolo[1,2-a]quinoxalin-6-yl)amino)pyridazine-3-carboxamide], the 50% inhibitory concentration (IC50) on TYK2 Pseudokinase (JH2) [3] is 30 to 300 nM; in experiment [1] it was 300 to 1000 nM; in experiment [4], 30 to 300 nM; at TYK2 Pseudokinase (JH2) [2], less than 30 nM.

As to `[2H]C([2H])([2H])NC(=O)c1nnc(NC(=O)C2CC2)cc1Nc1nccc2c1N(C)Cc1sc(C)nc1-2` [Compound 36, 6-(cyclopropanecarboxamido)-4-((2,5-dimethyl-4,5-dihydrothiazolo[5,4-c][1,7]naphthyridin-6-yl)amino)-N-(methyl-d3)pyridazine-3-carboxamide], the 50% inhibitory concentration (IC50) on TYK2 Pseudokinase (JH2) [3] was less than 30 nM; in experiment [1], 300 to 1000 nM; in experiment [4], 30 to 300 nM; at TYK2 Pseudokinase (JH2) [2], less than 30 nM.

As to `[2H]C([2H])([2H])NC(=O)c1nnc(NC(=O)C2CC2)cc1Nc1cccc2c1N(C)CC1CCC(=O)N21` (centres unmarked) [Compound 37, 6-(cyclopropanecarboxamido)-N-(methyl-d3)-4-((5-methyl-1-oxo-1,2,3,3a,4,5-hexahydropyrrolo[1,2-a]quinoxalin-6-yl)amino)pyridazine-3-carboxamide], the concentration for half-maximal inhibition (IC50) at TYK2 Pseudokinase (JH2) [3] is 30 to 300 nM; in experiment [1] it was more than 1000 nM; in experiment [4], 300 to 1000 nM; on TYK2 Pseudokinase (JH2) [2], less than 30 nM.

Take `[2H]C([2H])([2H])NC(=O)c1cnc(NC(=O)C2CC2)cc1Nc1cccc2c1N(C)Cc1nc(C)oc1-2` [Compound 23, 6-(cyclopropanecarboxamido)-4-((2,5-dimethyl-4,5-dihydrooxazolo[4,5-c]quinolin-6-yl)amino)-N-(methyl-d3)nicotinamide]: the half-inhibitory concentration (IC50) is 30 to 300 nM at TYK2 Pseudokinase (JH2) [3], more than 1000 nM in experiment [1], 30 to 300 nM in experiment [4] and less than 30 nM on TYK2 Pseudokinase (JH2) [2].

In the case of `[2H]C([2H])([2H])NC(=O)c1cnc(NC(=O)C2CC2)cc1Nc1cncc2c1N(C)Cc1nn(C)c(=O)n1-2` [Compound 13, 6-(cyclopropanecarboxamido)-4-((2,5-dimethyl-1-oxo-1,2,4,5-tetrahydropyrido[4,3-e][1,2,4]triazolo[4,3-a]pyrazin-6-yl)amino)-N-(methyl-d3)nicotinamide], the IC50 at TYK2 Pseudokinase (JH2) [3] and on TYK2 Pseudokinase (JH2) [2] was more than 1000 nM each time.

As to `[2H]C([2H])([2H])NC(=O)c1nnc(NC(=O)C2CC2)cc1Nc1cccc2c1N(C)C[C@@H]1CCC(=O)N21` [Compound 39, (S)-6-(cyclopropanecarboxamido)-N-(methyl-d3)-4-((5-methyl-1-oxo-1,2,3,3a,4,5-hexahydropyrrolo[1,2-a]quinoxalin-6-yl)amino)pyridazine-3-carboxamide], the half-inhibitory concentration (IC50) on TYK2 Pseudokinase (JH2) [3] was 300 to 1000 nM; on TYK2 Pseudokinase (JH2) [2], 30 to 300 nM.

With `[2H]C([2H])([2H])NC(=O)c1nnc(NC(=O)C2CC2)cc1Nc1cccc2c1N(C)Cc1sc(C)nc1-2` [Compound 35, 6-(cyclopropanecarboxamido)-4-((2,5-dimethyl-4,5-dihydrothiazolo[5,4-c]quinolin-6-yl)amino)-N-(methyl-d3)pyridazine-3-carboxamide], the figures for the IC50 (at TYK2 Pseudokinase (JH2) [3]; in experiment [1]; at TYK2 Pseudokinase (JH2) [2]) were less than 30 nM, more than 1000 nM and less than 30 nM, respectively.

As for `CNC(=O)c1nnc(NC(=O)C2CC2)cc1Nc1cccc2c1OCc1nn(C)c(=O)n1-2` [Compound 6, 6-(cyclopropanecarboxamido)-N-methyl-4-((2-methyl-1-oxo-2,4-dihydro-1H-benzo[b][1,2,4]triazolo[4,3-d][1,4]oxazin-6-yl)amino)pyridazine-3-carboxamide], the IC50 was more than 1000 nM on TYK2 Pseudokinase (JH2) [3] and 300 to 1000 nM on TYK2 Pseudokinase (JH2) [2].

On to `CNC(=O)c1nnc(NC(=O)C2CC2)cc1Nc1cccc2c1OCc1c-2noc1C` [Compound 3, 6-(cyclopropanecarboxamido)-N-methyl-4-((3-methyl-4H-chromeno[4,3-c]isoxazol-6-yl)amino)pyridazine-3-carboxamide], for which the IC50 in experiment [1] is more than 1000 nM; in experiment [4] it was more than 1000 nM; at TYK2 Pseudokinase (JH2) [2], 30 to 300 nM.

With `[2H]C([2H])([2H])NC(=O)c1nnc(NC(=O)C2COC2)cc1Nc1cccc2c1N(C)Cc1nn(C)c(=O)n1-2` [Compound 19, 4-((2,5-dimethyl-1-oxo-1,2,4,5-tetrahydro-[1,2,4]triazolo[4,3-a]quinoxalin-6-yl)amino)-N-(methyl-d3)-6-(oxetane-3-carboxamido)pyridazine-3-carboxamide], the IC50 on TYK2 Pseudokinase (JH2) [3] is 300 to 1000 nM; on TYK2 Pseudokinase (JH2) [2] it was more than 1000 nM.

Regarding `CNC(=O)c1nnc(Nc2ccc(F)cn2)cc1Nc1cccc2c1OCc1nn(C)c(=O)n1-2` [Compound 7, 6-((5-fluoropyridin-2-yl)amino)-N-methyl-4-((2-methyl-1-oxo-2,4-dihydro-1H-benzo[b][1,2,4]triazolo[4,3-d][1,4]oxazin-6-yl)amino)pyridazine-3-carboxamide], the IC50 at TYK2 Pseudokinase (JH2) [3] and on TYK2 Pseudokinase (JH2) [2] was more than 1000 nM in each case.

Source of the values: patent US20240189309A1, “TYK2 INHIBITORS AND USES THEREOF” (Sudo Biosciences Limited, priority 2021, published 2024).
